Data: patent publication US20240391862A1, “(1,4,5-TRISUBSTITUTED-1H-PYRAZOL-3-YL)OXY-2-ALKOXY ALKYL ACIDS AND THEIR DERIVATIVES, THEIR SALTS AND THEIR USE AS HERBICIDAL AGENTS” (Bayer AKtiengesellschaft, priority 2021, published 2024)

Key:
[1] = system: VIOTR; test: Post-emergence herbicidal effect, greenhouse pot test; format: in vivo, Viola tricolor
How it was run: (§1)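 Weeds sown in sandy loam, greenhouse-grown 2–3 weeks, then sprayed at one-leaf stage with WP or EC formulations in water plus 0.5% additive at 600 l/ha. Rates 20 to 320 g/ha. Visual rating after about 3 weeks versus untreated controls (100% = plants dead, 0% = like control).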

[2] = system: DIGSA; test: as above; format: in vivo, Digitaria sanguinalis; details: 320 g/ha, visual rating about 3 weeks after treatment
How it was run: as §1

[3] = system: ABUTH; test: as above; format: in vivo, Abutilon theophrasti; details: visual rating about 3 weeks after treatment
How it was run: as §1

[4] = system: AVEFA; test: as above; format: in vivo, Avena fatua; details: 320 g/ha, visual rating about 3 weeks after treatment; for pest or weed control at 320 g/ha: Avena fatua, 504 h, read-out: Post-emergence effect against AVEFA
How it was run: as §1

[5] = system: LOLRI; test: as above; format: in vivo, Lolium rigidum; details: 320 g/ha; for pest or weed control at 320 g/ha: Lolium rigidum, 504 h, read-out: Post-emergence effect against LOLRI in %
How it was run: as §1

[6] = system: POLCO; test: as above; format: in vivo, Fallopia convolvulus; details: Fallopia convolvulus, 504 h, read-out: Post-emergence effect against POLCO in %
How it was run: as §1

[7] = system: ALOMY; test: as above; format: in vivo, Alopecurus myosuroides; details: Alopecurus myosuroides, 504 h, 320 g/ha, visual rating about 3 weeks after treatment, read-out: Post-emergence effect against ALOMY
How it was run: as §1

[8] = system: PHBPU; test: as above; format: in vivo, Ipomoea purpurea
How it was run: as §1

[9] = system: TRZAS; test: Post-emergence herbicidal effect and crop plant compatibility, greenhouse pot test; format: in vivo, Triticum aestivum; details: for percent crop injury (phytotoxicity) to wheat, post-emergence at 20 g/ha: Triticum aestivum, 504 h, read-out: Post-emergence effect at 20 g/ha against TRZAS in %
From the text: • ALOMY: Alopecurus myosuroides SETVI: Setaria viridis • AVEFA: Avena fatua POLCO: Fallopia convolvulus • AMARE: Amaranthus retroflexus ECHCG: Echinochloa crus-galli • LOLRJ: Lolium rigidum STEME: Stellaria media • VERPE: Veronica persica MATIN: Tripleurospermum inodorum • DIGSA: Digitaria sanguinalis ABUTH: Abutylon threophrasti • TRZAS: Triticum aestivum VIOTR: Viola tricolor • BRSNW: Brassica napus ZEAMX: Zea mays • PHBPU: Ipomoea purpurea GLXMA: Glycine max • ORYSA: Oryza sativa HORMU: Hordeum murinum
Seeds of monocotyledonous and dicotyledonous weeds and crop plants are placed in sandy loam in plastic or organic planting pots, covered with soil and cultivated in a greenhouse under controlled growth conditions. 2 to 3 weeks after sowing, the trial plants are treated at the one-leaf stage. The compounds of the invention, formulated in the form of wettable powders (WP) or as emulsion concentrates (EC), are then sprayed onto the green parts of the plants as aqueous suspension or emulsion with addition of 0.5% additive at a water application rate of 600 l/ha (converted). After the test plants have been kept in the greenhouse under optimum growth conditions for about 3 weeks, the activity of the preparations is rated visually in comparison to untreated controls. For example, 100% activity=the plants have died, 0% activity=like control plants.
Tables 20a to 38c below show the effects/crop compatibilities of selected compounds of the general formula (I) on various harmful plants at an application rate corresponding to 20 to 320 g/ha, which were obtained by the trial procedure specified above.

[10] = system: SETVI; test: Post-emergence herbicidal effect, greenhouse pot test; format: in vivo, Setaria viridis
How it was run: as §1

[11] = system: ECHCG; test: as above; format: in vivo, Echinochloa crus-galli
How it was run: as §1

[12] = system: VERPE; test: as above; format: in vivo, Veronica persica
How it was run: as §1

[13] = system: MATIN; test: as above; format: in vivo, Tripleurospermum inodorum
How it was run: as §1

[14] = system: AMARE; test: as above; format: in vivo, Amaranthus retroflexus; details: visual rating about 3 weeks after treatment
How it was run: as §1

[15] = system: ZEAMX; test: Post-emergence herbicidal effect and crop plant compatibility, greenhouse pot test; format: in vivo, Zea mays; details: Zea mays, 504 h, 20 g/ha, one-leaf stage, rated visually after about 3 weeks vs untreated controls, read-out: Post-emergence effect at 20 g/ha against ZEAMX in %
How it was run: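 Sandy loam pots, greenhouse. One-leaf stage (2–3 wk after sowing) foliar spray; WP/EC in water + 0.5% additive, 600 l/ha; 20–320 g/ha. Visual score ~3 wk, 0–100% vs untreated.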

[16] = Viola tricolor, 504 h, read-out: Post-emergence effect against VIOTR in %
[17] = Viola tricolor, 504 h, 320 g/ha, read-out: Post-emergence effect against VIOTR in %
[18] = Abutilon theophrasti, 504 h, 320 g/ha, read-out: Post-emergence effect against ABUTH
[19] = Ipomoea purpurea, 504 h, 80 g/ha, read-out: Post-emergence effect against PHBPU in %
[20] = Ipomoea purpurea, 504 h, 320 g/ha, read-out: Post-emergence effect against PHBPU in %
[21] = 20 g/ha, one-leaf stage, rated visually after about 3 weeks vs untreated controls
[22] = Setaria viridis, 504 h, 320 g/ha, read-out: Post-emergence effect against SETVI in %
[23] = Echinochloa crus-galli, 504 h, 320 g/ha, read-out: Post-emergence effect against ECHCG in %
[24] = Veronica persica, 504 h, 320 g/ha, read-out: Post-emergence effect against VERPE in %

CCOC(=O)C(OC)Oc1nn(-c2cc(F)ccc2F)c(-c2cncc(F)c2)c1Br (stereo not drawn) [Example I-33]
90%: pest or weed control at 320 g/ha [1, 17] | pest or weed control at 80 g/ha ([3]; Abutilon theophrasti, 504 h, 80 g/ha, read-out: Post-emergence effect against ABUTH) | pest or weed control at 320 g/ha [3, 18] | pest or weed control at 320 g/ha [4] | pest or weed control at 320 g/ha [5] | pest or weed control at 320 g/ha [7] | pest or weed control at 80 g/ha [8, 19] | pest or weed control at 320 g/ha [8, 20] | pest or weed control at 80 g/ha ([10]; Setaria viridis, 504 h, 80 g/ha, read-out: Post-emergence effect against SETVI in %) | pest or weed control at 320 g/ha [10, 22] | pest or weed control at 320 g/ha [11, 23] | pest or weed control at 320 g/ha [12, 24] | pest or weed control at 320 g/ha ([13]; Tripleurospermum inodorum, 504 h, 320 g/ha, read-out: Post-emergence effect against MATIN in %)
20%: percent crop injury (phytotoxicity) to wheat, post-emergence at 20 g/ha [9, 21]
80%: pest or weed control at 20 g/ha ([1]; Viola tricolor, 504 h, 20 g/ha, read-out: Post-emergence effect against VIOTR in %) | pest or weed control at 80 g/ha [1, 16] | pest or weed control at 320 g/ha ([2]; Digitaria sanguinalis, 504 h, read-out: Post-emergence effect against DIGSA) | pest or weed control at 320 g/ha [6] | pest or weed control at 20 g/ha ([8]; Ipomoea purpurea, 504 h, 20 g/ha, read-out: Post-emergence effect against PHBPU in %) | pest or weed control at 80 g/ha ([11]; Echinochloa crus-galli, 504 h, 80 g/ha, read-out: Post-emergence effect against ECHCG in %) | pest or weed control at 80 g/ha ([12]; Veronica persica, 504 h, 80 g/ha, read-out: Post-emergence effect against VERPE in %) | pest or weed control at 80 g/ha ([13]; Tripleurospermum inodorum, 504 h, 80 g/ha, read-out: Post-emergence effect against MATIN in %)

COC(=O)C(OC)Oc1nn(-c2ncccc2F)c(-c2ccc(F)nc2)c1I (stereo not drawn) [Example I-39]
80%: pest or weed control at 80 g/ha [1, 16] | pest or weed control at 320 g/ha ([14]; Amaranthus retroflexus, 504 h, 320 g/ha, read-out: Post-emergence effect against AMARE)
90%: pest or weed control at 320 g/ha [1, 17] | pest or weed control at 320 g/ha [3, 18] | pest or weed control at 80 g/ha ([6]; 80 g/ha) | pest or weed control at 320 g/ha [6] | pest or weed control at 80 g/ha [8, 19] | pest or weed control at 320 g/ha [8, 20] | pest or weed control at 320 g/ha [10, 22] | pest or weed control at 320 g/ha [11, 23] | pest or weed control at 320 g/ha [12, 24]
20%: plant injury at 20 g/ha [15]
100%: pest or weed control at 320 g/ha [4] | pest or weed control at 320 g/ha [5] | pest or weed control at 320 g/ha [7]
0%: percent crop injury (phytotoxicity) to wheat, post-emergence at 20 g/ha [9, 21]

COC(=O)C(OC)Oc1nn(-c2cccc(C)c2F)c(-c2ccc(F)nc2)c1Br (stereo not drawn) [Example I-114]
0%: Post-emergence effect at 20 g/ha against TRZAS in % [9, 21]
90%: Post-emergence effect against VIOTR in % ([1]; 320 g/ha) | Post-emergence effect against ABUTH ([3]; 320 g/ha) | Post-emergence effect against AMARE ([14]; 320 g/ha) | Post-emergence effect against PHBPU in % ([8]; 320 g/ha) | Post-emergence effect against SETVI in % ([10]; 320 g/ha) | Post-emergence effect against ECHCG in % ([11]; 80 g/ha) | Post-emergence effect against VERPE in % ([12]; 320 g/ha) | Post-emergence effect against MATIN in % ([13]; 320 g/ha)
100%: Post-emergence effect against ECHCG in % ([11]; 320 g/ha)
80%: Post-emergence effect against DIGSA [2] | Post-emergence effect against ABUTH ([3]; 80 g/ha) | Post-emergence effect against AVEFA [4] | Post-emergence effect against AMARE ([14]; 20 g/ha) | Post-emergence effect against AMARE ([14]; 80 g/ha) | Post-emergence effect against LOLRI in % [5] | Post-emergence effect against PHBPU in % ([8]; 80 g/ha) | Post-emergence effect against ECHCG ([11]; 20 g/ha, visual rating about 3 weeks after treatment) | Post-emergence effect against VERPE in % ([12]; 20 g/ha) | Post-emergence effect against VERPE in % ([12]; 80 g/ha) | Post-emergence effect against MATIN in % ([13]; 80 g/ha)
20%: Post-emergence effect against TRZAS ([9]; 80 g/ha, visual rating about 3 weeks after treatment, crop plant)
